Results on three compounds are retold here after patent US20210346359A1, “Use of CFTR Modulators For Treating Cerebrovascular Conditions” (Qanatpharma AG, priority 2018, published 2021).

Entries after “also recorded” stand apart in the source; their conditions may differ. Like-named read-outs stand apart in the source and are kept apart here.

Experiment [1] relates to olfactory cerebral arteries. Put plainly: Phenylephrine responses of isolated olfactory cerebral arteries. Type of experiment: in vivo, mouse. Particulars: Mus musculus, olfactory cerebral arteries, log scale, read-out: log EC50 of phenylephrine response (converted). The protocol: (§1) Isolation and functional assessment of resistance arteries: Mouse olfactory (a first branch of the anterior cerebral artery) and PCAs were carefully dissected, cannulated onto micropipettes, stretched to their in vivo lengths and pressurized to 45 mmHg, as previously described (3,6); mouse skeletal muscle resistance arteries were dissected from the cremaster muscle, cannulated and pressurized to 60 mmHg. All functional experiments were conducted in 3-morpholinopropanesulfonic acid (MOPS) buffered saline at 37° C. with no perfusion. Vasomotor responses to phenylephrine (5 μmol/L for posterior cerebral arteries, 10 μmol/L for cremaster skeletal muscle arteries) provided an assessment of vessel viability at the beginning and end of each experiment. Arteries failing to show ≥25% constriction to phenylephrine were excluded.
(§2) Myogenic tone was calculated as the percent constriction in relation to the maximal diameter at each respective transmural pressure: tone (% of diamax)=[(diamax−diaactive)/diamax]×100, where diaactive is the vessel diameter in MOPS containing Ca^2+ and diamax is the diameter in Ca^2+-free MOPS. Analyses of vasomotor responses to phenylephrine used the same calculation, only in this case, diaactive represents the vessel diameter at steady state following application of the given agent and diamax represents the maximal diameter measured under Ca^2+-free conditions.

Experiment [2] has as its system posterior cerebral arteries. Put plainly: Phenylephrine responses of isolated posterior cerebral arteries. Type of experiment: in vivo, mouse. Particulars: Mus musculus, posterior cerebral arteries, log scale, read-out: log EC50 of phenylephrine response (converted). The protocol:
as §1, §2

In experiment [3] the test system is olfactory cerebral artery. Particulars: recent observations (6); cited from earlier work.
The subject of experiment [4] is cremaster skeletal muscle resistance arteries. Put plainly: Cremaster skeletal muscle resistance artery myogenic tone and phenylephrine response with CFTR inhibition in vitro. Particulars: wild-type mouse arteries; in vitro 100 nmol/L for 30 minutes. The procedure:
Isolation and functional assessment of resistance arteries: Mouse olfactory (a first branch of the anterior cerebral artery) and PCAs were carefully dissected, cannulated onto micropipettes, stretched to their in vivo lengths and pressurized to 45 mmHg, as previously described (3,6); mouse skeletal muscle resistance arteries were dissected from the cremaster muscle, cannulated and pressurized to 60 mmHg. All functional experiments were conducted in 3-morpholinopropanesulfonic acid (MOPS) buffered saline at 37° C. with no perfusion. […]
Myogenic responses were elicited by step-wise 20 mmHg increases in transmural pressure from 20 mmHg to 80 mmHg (olfactory arteries) or 100 mmHg (posterior cerebral arteries and cremaster skeletal muscle resistance arteries). At each pressure step, vessel diameter (diaactive) was measured once a steady state was reached (5 min). Vessels requiring treatment (e.g., CFTR(inh)-172) were incubated with the reagent in MOPS for 30 min and myogenic responses were then assessed in the presence of that reagent. Following completion of all diaactive measurements, MOPS buffer was replaced with a Ca^2+-free version and maximal passive diameter (diamax) was recorded at each pressure step. […]

The target in another experiment is T1, TNF (Mus musculus, UniProt P06804).
T1 sequence (P06804 1-235): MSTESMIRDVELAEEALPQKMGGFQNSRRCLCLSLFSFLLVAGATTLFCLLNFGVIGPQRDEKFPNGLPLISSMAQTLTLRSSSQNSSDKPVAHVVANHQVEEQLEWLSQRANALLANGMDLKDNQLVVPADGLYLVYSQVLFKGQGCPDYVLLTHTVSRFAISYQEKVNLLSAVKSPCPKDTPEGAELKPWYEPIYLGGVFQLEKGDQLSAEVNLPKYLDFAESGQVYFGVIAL
Particulars: HF and SAH models, cited from earlier work.

On to `CNC[C@H](O)c1cccc(O)c1` [phenylephrine], for which the EC50 (in general, the midpoint of the concentration-response curve) in experiment [1] (SAH untreated (C18 study)) is 977 nM; in experiment [1] (SAH untreated (lumacaftor study)), 1170 nM; in experiment [1] (Sham (C18 SAH study)), 3020 nM; in experiment [1] (Sham (lumacaftor SAH study)), 1620 nM; in experiment [2] (CFTRΔF508 mice), 1000 nM; in experiment [2] (HF mice untreated), 562 nM. Also, the results for the EC50 in experiment [2] (Sham (HF study)) and in experiment [2] (WT littermates) were 501 nM and 1480 nM, respectively.
As for `O=C(O)c1ccc(/C=C2\SC(=S)N(c3cccc(C(F)(F)F)c3)C2=O)cc1` [CFTR(inh)-172], in experiment [3], the “olfactory cerebral artery myogenic tone” value is recorded as “augments”. Also, in experiment [4], the “cremaster skeletal muscle resistance artery myogenic tone” value was “does not affect; also recorded: not altered” and the “phenylephrine dose-response relationship in cremaster arteries” value was “not altered”.
Take etanercept: at TNF (earlier work (3,4,6)), the “HF- and SAH-mediated enhancement of cerebrovascular vasoconstriction (augmented myogenic tone)” value is “eliminates”; the cerebral perfusion entry was “normalizes”. Further, on TNF (earlier work (5,6)), the neuronal injury result is on record as “reduces”.
